{"source": "paper PMC12298827", "about": "“Subchronic Toxicities of Four Per- and Polyfluoroalkyl Substances (PFASs) by Oral Exposure in Sprague–Dawley Rats” (Toxics, 2025)", "key": {"[1]": {"assay": "Solubility in dosing vehicles", "assay_type": "physicochemical", "from_the_text": "(§1) Based on solubility, corn oil (Welsh, Holme & Clark Inc., Newark, NJ, USA) was used as the vehicle for all four PFASs. Gas chromatography (GC) with flame ionization detection (FID) was used for the analysis of the PFNAC, PFHI, and MHFPK formulations, and a high-performance liquid chromatography (HPLC) method with ultraviolet spectroscopy was used for the CTFPA formulation. The details of the dosing solution analytical conditions are summarized in supplemental Tables S1 and S2. These analytical methods were developed specifically for these subchronic toxicity studies. […] Dosing solutions were prepared and replaced between at least every 29 days and no more than every 39 days.\n(§2) PFNAC, PFHI, and MHFPK were soluble in corn oil up to 67, 200, and 100 mg/mL, respectively. As solubility in aqueous vehicles was 40 mg/mL or less for all three chemicals, corn oil was chosen as the vehicle. PFNAC was stable at the ambient temperature for 51 days at target concentrations of 0.2 and 10 mg/mL PFHI was stable in corn oil at ambient temperatures and target concentrations of 1 and 80 mg/mL for up to 70 days. MFHPK was stable in corn oil at room temperature for up to 44 days at target concentrations of 5 and 100 mg/mL. CTFPA was soluble in both deionized (DI) water and corn oil at 200 mg/mL when stored refrigerated overnight. […] Thus, corn oil was chosen as the vehicle for CTFPA. The stability of the CTFPA in the corn oil was evaluated for 8, 13, 15, 23, 35, and 42 days stored refrigerated in plastic bottles. CTFPA at 40 mg/mL was stable for up to 42 days. CTFPA at 0.6 mg/mL was stable for up to […] when refrigerated in plastic bottles but by 42 days had decreased to approximately 81%."}, "[2]": {"assay": "Stability of dosing formulations in corn oil", "assay_type": "physicochemical", "from_the_text": "as §1, §2"}, "[3]": {"assay": "Parent chemical in rat plasma, 90-day study", "assay_type": "in vivo", "conditions": "for concentration at 91 day: Sprague-Dawley, rat, plasma, oral; for Percentage of the dose in the plasma: 90 days", "method": "Subchronic (90-day) studies were performed in accordance with current U.S. EPA’s Toxic Substances Control Act Good Laboratory Practice (GLP) Standards, with the following two general exceptions to the GLP guidelines: Analysis of the dose formulations was conducted according to RTI-approved Standard Operating Procedures, and corn oil (the vehicle) was not characterized (certificate of analysis from the vendor is available in the appendices to the final reports). Male and female Sprague–Dawley rats (five dose levels plus a control, n = 10/sex/dose group, corn oil vehicle dose volume of 3 mL/kg; oral gavage) were used in these studies, and the rats were euthanized on SD 91. The dose levels for PFHI were 0, 12.5, 25, 50, 100, and 200 mg/kg-day. The dose levels for MHFPK were 0, 18.8, 37.5, 75, 150, and 300 mg/kg-day. The dose levels for PFNAC were 0, 0.1, 0.3, 1.0, 3.0, and 10 mg/kg-day for male rats and 0, 0.3, 1.0, 3.0, 10, and 30 mg/kg-day for female rats. For CTFPA, the dose levels were 0, 1.9, 3.8. 7.5, 15, and 30 mg/kg-day for male rats and 0, 6.3, 12.5, 25, 50, and 100 mg/kg-day for female rats. For each PFAS, three batches of dosing solution were prepared. The time between the batch preparation of the dosing solutions ranged between 29 and 39 days. Blood samples were collected from all the rats at termination for serum chemistry, hematology, coagulation, and the analysis of the parent PFAS chemical in the plasma. In vivo data collection and further detail on the endpoints examined postmortem are described below.\nOn SD 1 of the 14-day study (~2 h post dosing), 0.2 mL of blood was collected via tail vein puncture in tubes containing K3EDTA and stored on wet ice. Prior to the scheduled euthanasia, blood (~1 mL) was collected from the jugular vein in tubes containing K3EDTA and stored on wet ice on SD 15, for the 14-day study, and SD 91, for the 90-day study. All the tubes were centrifuged at an ~1500 relative centrifugal force within 1 h of collection for 15 min at 5 ± 3 °C. The plasma was stored at −75 ± 15 °C until the analysis. PFNAC and PFHI were analyzed using a headspace GC–mass spectrometry (MS) method, as summarized in Table S3, and CTFPA was analyzed using an ultra-HPLC-MS method, as summarized in Table S4. The MHFPK samples were not analyzed because a method suitable for plasma was not available. The details concerning the preparation of the samples, method blanks, and matrix and QC standards for the analysis are available in the appendices to the study reports."}, "[4]": {"conditions": "corn oil, oil or lipid, read-out: Solubility in corn oil"}}, "note": "Read-outs that look alike come from different tables or passages of the source.", "data": [{"molecule": "C=CC(=O)OCC(F)(F)C(F)(F)C(F)(F)C(F)(F)C(F)(F)C(F)(F)C(F)(F)C(F)F", "note": "[PFNAC, 1H,1H,9H-Perfluorononyl acrylate]", "values": [{"measurement": "solubility", "setting": "[1]; [4]", "value": "≤ 67", "unit": "mg/mL"}, {"measurement": "Stable in corn oil for", "setting": "[2]; ambient temperature, 0.2 and 10 mg/mL", "value": 51, "unit": "days"}, {"measurement": "Parent chemical in plasma", "setting": "[3]; female, Day 91, highest dose 30 mg/kg-day", "value": "Parent chemical not detected at the highest dose"}, {"measurement": "Parent chemical in plasma", "setting": "[3]; male, Day 91, highest dose 10 mg/kg-day", "value": "Parent chemical not detected at the highest dose"}]}, {"molecule": "O=C(O)C(F)(Cl)C(F)(F)F", "note": "(stereo not drawn) [CTFPA, 2-Chloro-2,3,3,3-tetrafluoropropanoic acid]", "values": [{"measurement": "pH of the DI water solution", "setting": "[1]; DI water solution", "value": "< 1"}, {"measurement": "solubility", "setting": "[1]; corn oil, stored refrigerated overnight, read-out: Solubility in corn oil", "value": 200, "unit": "mg/mL"}, {"measurement": "solubility", "setting": "[1]; deionized water, stored refrigerated overnight, read-out: Solubility in deionized (DI) water", "value": 200, "unit": "mg/mL"}, {"measurement": "Concentration remaining in corn oil", "setting": "[2]; 0.6 mg/mL, by 42 days, refrigerated", "value": "approximately 81%"}, {"measurement": "Stable in corn oil for", "setting": "[2]; 0.6 mg/mL, refrigerated in plastic bottles", "value": "up to 22 days"}, {"measurement": "Stable in corn oil for", "setting": "[2]; 40 mg/mL, refrigerated in plastic bottles", "value": "up to 42 days"}, {"measurement": "concentration at 91 day", "setting": "[3]; female, Day 91, 6.3 mg/kg-day", "value": 12600, "unit": "ng/mL"}, {"measurement": "concentration at 91 day", "setting": "[3]; female, Day 91, 12.5 mg/kg-day", "value": 24700, "unit": "ng/mL"}, {"measurement": "concentration at 91 day", "setting": "[3]; female, Day 91, 25 mg/kg-day", "value": 51000, "unit": "ng/mL"}, {"measurement": "concentration at 91 day", "setting": "[3]; female, Day 91, 50 mg/kg-day", "value": 71500, "unit": "ng/mL"}, {"measurement": "concentration at 91 day", "setting": "[3]; female, Day 91, 100 mg/kg-day", "value": 116000, "unit": "ng/mL"}, {"measurement": "concentration at 91 day", "setting": "[3]; male, Day 91, 1.9 mg/kg-day", "value": 12600, "unit": "ng/mL"}, {"measurement": "concentration at 91 day", "setting": "[3]; male, Day 91, 3.8 mg/kg-day", "value": 22300, "unit": "ng/mL"}, {"measurement": "concentration at 91 day", "setting": "[3]; male, Day 91, 7.5 mg/kg-day", "value": 43300, "unit": "ng/mL"}, {"measurement": "concentration at 91 day", "setting": "[3]; male, Day 91, 15 mg/kg-day", "value": 62100, "unit": "ng/mL"}, {"measurement": "concentration at 91 day", "setting": "[3]; male, Day 91, 30 mg/kg-day", "value": 84400, "unit": "ng/mL"}, {"measurement": "Percentage of the dose in the plasma", "setting": "[3]; female, 100 mg/kg-day", "value": "4.48 ± 1.63", "unit": "%"}, {"measurement": "Percentage of the dose in the plasma", "setting": "[3]; male, 30 mg/kg-day", "value": "10.82 ± 2.76", "unit": "%"}]}, {"molecule": "CC(=O)C(F)(F)C(F)(F)C(F)(F)F", "note": "[MHFPK, Methyl heptafluoropropyl ketone]", "values": [{"measurement": "solubility", "setting": "[1]; [4]", "value": "≤ 100", "unit": "mg/mL"}, {"measurement": "Stable in corn oil for", "setting": "[2]; room temperature, 5 and 100 mg/mL", "value": "up to 44 days"}]}, {"molecule": "FC(F)(F)C(F)(F)C(F)(F)C(F)(F)CCI", "note": "[PFHI, 1H,1H,2H,2H-Perfluorohexyl iodide]", "values": [{"measurement": "solubility", "setting": "[1]; [4]", "value": "≤ 200", "unit": "mg/mL"}, {"measurement": "Stable in corn oil for", "setting": "[2]; ambient temperatures, 1 and 80 mg/mL", "value": "up to 70 days"}, {"measurement": "concentration at 91 day", "setting": "[3]; female, Day 91, 50 mg/kg-day", "value": "12.2 ± 9.91", "unit": "ng/mL"}, {"measurement": "concentration at 91 day", "setting": "[3]; female, Day 91, 100 mg/kg-day", "value": "48.3 ± 22.9", "unit": "ng/mL"}, {"measurement": "concentration at 91 day", "setting": "[3]; female, Day 91, 200 mg/kg-day", "value": "76.7 ± 24.1", "unit": "ng/mL"}, {"measurement": "concentration at 91 day", "setting": "[3]; male, Day 91, 200 mg/kg-day", "value": "52.4 ± 24.1", "unit": "ng/mL"}, {"measurement": "Parent chemical in plasma", "setting": "[3]; female, Day 91, 12.5 mg/kg-day", "value": "BLOD (below the limit of detection—1.7 ng/mL)"}, {"measurement": "Parent chemical in plasma", "setting": "[3]; female, Day 91, 25 mg/kg-day", "value": "<BLOD/≤LOQ"}, {"measurement": "Parent chemical in plasma", "setting": "[3]; male, Day 91, 12.5 mg/kg-day", "value": "BLOD (below the limit of detection—1.7 ng/mL)"}, {"measurement": "Parent chemical in plasma", "setting": "[3]; male, Day 91, 25 mg/kg-day", "value": "<BLOD/≤LOQ"}, {"measurement": "Parent chemical in plasma", "setting": "[3]; male, Day 91, 50 mg/kg-day", "value": "14.0 ± 6.21", "unit": "ng/mL"}, {"measurement": "Parent chemical in plasma", "setting": "[3]; male, Day 91, 100 mg/kg-day", "value": "43.8 ± 7.53", "unit": "ng/mL"}]}]}
